Assay results published in patent US7674899B2, “Dimeric azacyclic compounds and their use” (Neurosearch A/S, priority 2004, dated 2010).
Where a name gives a salt, the structure may show the parent alone.

Target: T1, α7-subtype of nicotinic receptors (Rattus norvegicus, UniProt Q05941)
T1 construct: Cerebral cortices from male Wistar rats (150-250 g) are homogenised; from tissue; host or cells: rat cerebral cortex membrane homogenate
Experiment: In vitro inhibition of 3H-α-bungarotoxine binding in rat brain
Conditions: rat cerebral cortex homogenate; 2 nM 3H-α-bungarotoxine; 2 hours at 37° C.

T1 sequence (Q05941 23-502): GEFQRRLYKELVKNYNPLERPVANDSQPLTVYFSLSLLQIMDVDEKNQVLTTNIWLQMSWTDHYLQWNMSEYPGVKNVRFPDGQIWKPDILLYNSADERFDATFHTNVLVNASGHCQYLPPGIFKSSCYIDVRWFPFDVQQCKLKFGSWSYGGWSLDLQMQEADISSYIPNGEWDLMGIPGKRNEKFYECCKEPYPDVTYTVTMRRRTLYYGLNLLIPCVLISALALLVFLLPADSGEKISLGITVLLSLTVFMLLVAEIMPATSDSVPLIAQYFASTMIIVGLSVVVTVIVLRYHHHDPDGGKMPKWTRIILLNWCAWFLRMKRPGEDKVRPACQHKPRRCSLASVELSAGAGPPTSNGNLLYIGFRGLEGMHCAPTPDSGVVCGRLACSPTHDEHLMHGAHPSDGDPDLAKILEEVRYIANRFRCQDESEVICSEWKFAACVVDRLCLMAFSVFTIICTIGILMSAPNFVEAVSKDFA

Work on `c1nc(OC2CN3CCC2CC3)sc1-c1cnc(OC2CN3CCC2CC3)s1` (racemic) [Compound A1, 2,2′-Bis-((±)-1-aza-bicyclo[2.2.2]oct-3-yloxy)-[5,5′]-bithiazolyl fumaric acid salt] yielded an IC50 of 200 nM.
